Reference: patent publication US8008303B2, “Biphenyl derivatives and their use in treating hepatitis C” (AstraZeneca AB, priority 2005, dated 2011)
pIC50: −log10 of the molar value.

Tests used:
[1] = tested on: HCV replicon cells Huh 9B; format: cell-based; settings: concentration reducing total cell area by 50% relative to DMSO controls; methylene blue, absorbance 620 nm; 72 h incubation
[2] = tested on: HCV replicon cells Huh 9B; assay: HCV replicon assay (luciferase readout); format: cell-based; settings: Hepatitis C virus, 72 h, concentration reducing replicon level (luciferase activity) by 50% vs untreated cell control; 72 h incubation
Outline: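 Compounds, made up at twice final strength (final DMSO 1%), were added to subgenomic replicon cells one day after plating. Incubation then ran 72 h at 37 °C, 5% CO2, without G418. Replication was quantified as firefly luciferase luminescence in lysed cells, with cytotoxicity assessed on a duplicate clear plate.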

SMILES	TD50 [1]	pIC50 [2]
Cc1ccc(NC(=O)C2CCCCC2)cc1-c1ccc(C(=O)Nc2ccc(CO)cc2)cc1 [Example 232, 5′-(Cyclohexanecarbonyl-amino)-2′-methyl-biphenyl-4-carboxylic acid (4-hydroxymethyl-phenyl)-amide]	* (* < 50 μM)	> 6.00
Cc1ccc(NC(=O)c2ccco2)cc1-c1ccc(C(=O)Nc2ccc3cc[nH]c3c2)cc1 [Example 233, Furan-2-carboxylic acid [4′-(1H-indol-6-ylcarbamoyl)-6-methyl-biphenyl-3-yl]-amide]	* (* < 50 μM)	> 6.00
CCCS(=O)(=O)N1CCN(Cc2ccc(NC(=O)c3ccc(-c4cc(NC(=O)[C@H]5CCCCN5)ccc4OC(F)(F)F)cc3)cc2)CC1 [Example 234, (R)-Piperidine-2-carboxylic acid (4′-{4-[4-(propane-1-sulfonyl)-piperazin-1-ylmethyl]-phenylcarbamoyl}-6-trifluoromethoxy-biphenyl-3-yl)-amide]	* (* < 50 μM)	> 6.00
CS(=O)(=O)N1CCN(Cc2ccc(NC(=O)c3ccc(-c4cc(NC(=O)NC5CCCCC5)ccc4OC(F)(F)F)cc3)cc2)CC1 [Example 235, 5′-(3-Cyclohexyl-ureido)-2′-trifluoromethoxy-biphenyl-4-carboxylic acid [4-(4-methanesulfonyl-piperazin-1-ylmethyl)-phenyl]-amide]	* (* < 50 μM)	> 6.00
CCCS(=O)(=O)N1CCN(Cc2ccc(NC(=O)c3ccc(-c4cc(NC(=O)[C@@H]5CCCN5)ccc4OC(F)(F)F)cc3)cc2)CC1 [Example 236, (S)-Pyrrolidine-2-carboxylic acid (4′-{4-[4-(propane-1-sulfonyl)-piperazin-1-ylmethyl]-phenylcarbamoyl}-6-trifluoromethoxy-biphenyl-3-yl)-amide]	* (* < 50 μM)	5.30 to 6.00
CCCS(=O)(=O)N1CCN(Cc2ccc(NC(=O)c3ccc(-c4cc(NC(=O)C5CC5)ccc4OC(F)(F)F)cc3)cc2)CC1 [Example 237, 5′-(Cyclopropanecarbonyl-amino)-2′-trifluoromethoxy-biphenyl-4-carboxylic acid {4-[4-(propane-1-sulfonyl)-piperazin-1-ylmethyl]-phenyl}-amide]	* (* < 50 μM)	> 6.00
CCCS(=O)(=O)N1CCN(Cc2ccc(NC(=O)c3ccc(-c4cc(NC(=O)[C@@H]5CCCCN5)ccc4OC(F)(F)F)cc3)cc2)CC1 [Example 238, (S)-Piperidine-2-carboxylic acid (4′-{4-[4-(propane-1-sulfonyl)-piperazin-1-ylmethyl]-phenylcarbamoyl}-6-trifluoromethoxy-biphenyl-3-yl)-amide]	* (* < 50 μM)	> 6.00
CN1CCN(C(=O)Nc2ccc(OC(F)(F)F)c(-c3ccc(C(=O)Nc4ccc(CN5CCN(S(C)(=O)=O)CC5)cc4)cc3)c2)CC1 [Example 239, 4-Methyl-piperazine-1-carboxylic acid {4′-[4-(4-methanesulfonyl-piperazin-1-ylmethyl)-phenylcarbamoyl]-6-trifluoromethoxy-biphenyl-3-yl}-amide]	* (* < 50 μM)	> 6.00
CNCC(=O)Nc1ccc(OC(F)(F)F)c(-c2ccc(C(=O)Nc3ccc(CN4CCN(S(=O)(=O)N(C)C)CC4)cc3)cc2)c1 [Example 240, 5′-(2-Methylamino-acetylamino)-2′-trifluoromethoxy-biphenyl-4-carboxylic acid [4-(4-dimethylsulfamoyl-piperazin-1-ylmethyl)-phenyl]-amide]	* (* < 50 μM)	> 6.00
CS(=O)(=O)N1CCN(Cc2ccc(NC(=O)c3ccc(-c4cc(NC(=O)[C@@H]5CCN5C(=O)O)ccc4OC(F)(F)F)cc3)cc2)CC1 [Example 241, (S)-2-{4′-[4-(4-Methanesulfonyl-piperazin-1-ylmethyl)-phenylcarbamoyl]-6-trifluoromethoxy-biphenyl-3-ylcarbamoyl}-azetidine-1-carboxylic acid]	* (* < 50 μM)	> 6.00
Cc1ccc(NC(=O)C2CCCCC2)cc1-c1ccc(C(=O)Nc2ccc(CCN3CCS(=O)(=O)CC3)cc2)cc1 [Example 242, 5′-(Cyclohexanecarbonyl-amino)-2′-methyl-biphenyl-4-carboxylic acid {4-[2-(1,1-dioxo-1lambda*6*-thiomorpholin-4-yl)-ethyl]-phenyl}-amide]	* (* < 50 μM)	5.30 to 6.00
CCCS(=O)(=O)N1CCN(Cc2ccc(NC(=O)c3ccc(-c4cc(NC(=O)C5CC5)ccc4C)cc3)cc2)CC1 [Example 243, 5′-(Cyclopropanecarbonyl-amino)-2′-methyl-biphenyl-4-carboxylic acid [4-(4-propane-1-sulfonyl-piperazin-1-ylmethyl)-phenyl]-amide]	* (* < 50 μM)	> 6.00
COc1ccc(S(=O)(=O)Nc2ccc(N3CCOCC3)cc2)cc1-c1ccc(C(=O)Nc2ccc(CN3CCS(=O)(=O)CC3)cc2)cc1 [Example 244, 2′-Methoxy-5′-(4-morpholin-4-yl-phenylsulfamoyl)-biphenyl-4-carboxylic acid [4-(1,1-dioxo-1lambda*6*-thiomorpholin-4-ylmethyl)-phenyl]-amide]	* (* < 50 μM)	> 6.00
COc1ccc(S(=O)(=O)Nc2ccc(N3CCOCC3)cc2)cc1-c1ccc(C(=O)Nc2ccc(CN3CCN(S(C)(=O)=O)CC3)cc2)cc1 [Example 245, 2′-Methoxy-5′-(4-morpholin-4-yl-phenylsulfamoyl)-biphenyl-4-carboxylic acid [4-(4-methanesulfonyl-piperazin-1-ylmethyl)-phenyl]-amide]	* (* < 50 μM)	> 6.00
COc1ccc(S(=O)(=O)Nc2ccc(N3CCOCC3)cc2)cc1-c1ccc(C(=O)Nc2ccc(CN3CCN(S(=O)(=O)C(C)C)CC3)cc2)cc1 [Example 246, 2′-Methoxy-5′-(4-morpholin-4-yl-phenylsulfamoyl)-biphenyl-4-carboxylic acid [4-(4-propane-2-sulfonyl-piperazin-1-ylmethyl)-phenyl]-amide]	* (* < 50 μM)	> 6.00
COc1ccc(S(=O)(=O)Nc2ccc(N3CCOCC3)cc2)cc1-c1ccc(C(=O)Nc2ccc(CN3CCN(S(=O)(=O)N(C)C)CC3)cc2)cc1 [Example 247, 2′-Methoxy-5′-(4-morpholin-4-yl-phenylsulfamoyl)-biphenyl-4-carboxylic acid [4-(4-dimethylsulfamoyl-piperazin-1-ylmethyl)-phenyl]-amide]	* (* < 50 μM)	> 6.00
CCCS(=O)(=O)N1CCN(Cc2ccc(NC(=O)c3ccc(-c4cc(S(=O)(=O)Nc5ccc(N6CCOCC6)cc5)ccc4OC)cc3)cc2)CC1 [Example 248, 2′-Methoxy-5′-(4-morpholin-4-yl-phenylsulfamoyl)-biphenyl-4-carboxylic acid [4-(4-propane-1-sulfonyl-piperazin-1-ylmethyl)-phenyl]-amide]	* (* < 50 μM)	> 6.00
CN1CCN(Cc2ccc(NC(=O)c3ccc(-c4cc(NC(=O)C5CCCCC5)ccc4Cl)cc3)cc2)CC1 [Example 249, 2′-Chloro-5′-(cyclohexanecarbonyl-amino)-biphenyl-4-carboxylic acid [4-(4-methyl-piperazin-1-ylmethyl)-phenyl]-amide]	* (* < 50 μM)	5.30 to 6.00
